Laboratory results from paper PMC3961306, “Comparison of the Cancer Gene Targeting and Biochemical Selectivities of All Targeted Kinase Inhibitors Approved for Clinical Use” (PLoS ONE, 2014).

Assays:
Experiment in all cases: Kinase profiling in a biochemical assay panel (mobility shift assays and ELISA), %-inhibition at 1 μM; selectivity entropy
[1] = target: T1, panel of more than 300 wild-type and mutant kinases (313 kinase panel) (Homo sapiens, UniProt Q9NRM7); conditions: kinase LATS2; compound at 1 μM
T1 sequence (Q9NRM7 1-1088): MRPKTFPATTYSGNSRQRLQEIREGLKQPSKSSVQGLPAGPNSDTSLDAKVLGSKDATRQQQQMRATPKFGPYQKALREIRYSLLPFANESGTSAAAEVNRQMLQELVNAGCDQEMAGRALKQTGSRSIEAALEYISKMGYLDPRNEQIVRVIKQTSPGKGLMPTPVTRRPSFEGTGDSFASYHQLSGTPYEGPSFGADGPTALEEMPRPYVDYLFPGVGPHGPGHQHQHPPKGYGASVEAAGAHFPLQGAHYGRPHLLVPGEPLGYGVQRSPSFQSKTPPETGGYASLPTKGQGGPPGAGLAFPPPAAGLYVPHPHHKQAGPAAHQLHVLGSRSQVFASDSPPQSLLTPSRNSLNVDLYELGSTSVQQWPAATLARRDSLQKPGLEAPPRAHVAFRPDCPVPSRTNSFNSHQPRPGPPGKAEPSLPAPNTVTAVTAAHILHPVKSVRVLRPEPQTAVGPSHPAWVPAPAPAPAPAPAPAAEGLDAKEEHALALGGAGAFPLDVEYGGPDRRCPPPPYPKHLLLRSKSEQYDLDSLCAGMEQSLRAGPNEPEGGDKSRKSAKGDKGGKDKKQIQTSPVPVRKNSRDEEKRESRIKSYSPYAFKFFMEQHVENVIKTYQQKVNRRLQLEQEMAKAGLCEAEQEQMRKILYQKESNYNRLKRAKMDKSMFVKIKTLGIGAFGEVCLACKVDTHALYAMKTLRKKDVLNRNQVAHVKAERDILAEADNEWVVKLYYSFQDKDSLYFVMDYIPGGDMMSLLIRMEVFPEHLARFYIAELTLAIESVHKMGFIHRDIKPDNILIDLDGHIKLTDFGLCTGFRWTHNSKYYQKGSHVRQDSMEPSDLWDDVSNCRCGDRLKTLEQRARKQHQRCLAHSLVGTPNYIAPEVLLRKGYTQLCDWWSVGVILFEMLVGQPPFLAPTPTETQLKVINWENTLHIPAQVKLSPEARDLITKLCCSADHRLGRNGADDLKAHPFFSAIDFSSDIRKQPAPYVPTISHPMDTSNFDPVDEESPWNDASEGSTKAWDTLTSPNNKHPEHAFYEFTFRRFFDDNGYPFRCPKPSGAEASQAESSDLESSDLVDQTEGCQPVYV

[2] = target: panel of more than 300 wild-type and mutant kinases (313 kinase panel) (Homo sapiens, UniProt P10721)
panel of more than 300 wild-type and mutant kinases (313 kinase panel) (Homo sapiens, UniProt P10721), sequence (P10721 26-976, stated change not applied): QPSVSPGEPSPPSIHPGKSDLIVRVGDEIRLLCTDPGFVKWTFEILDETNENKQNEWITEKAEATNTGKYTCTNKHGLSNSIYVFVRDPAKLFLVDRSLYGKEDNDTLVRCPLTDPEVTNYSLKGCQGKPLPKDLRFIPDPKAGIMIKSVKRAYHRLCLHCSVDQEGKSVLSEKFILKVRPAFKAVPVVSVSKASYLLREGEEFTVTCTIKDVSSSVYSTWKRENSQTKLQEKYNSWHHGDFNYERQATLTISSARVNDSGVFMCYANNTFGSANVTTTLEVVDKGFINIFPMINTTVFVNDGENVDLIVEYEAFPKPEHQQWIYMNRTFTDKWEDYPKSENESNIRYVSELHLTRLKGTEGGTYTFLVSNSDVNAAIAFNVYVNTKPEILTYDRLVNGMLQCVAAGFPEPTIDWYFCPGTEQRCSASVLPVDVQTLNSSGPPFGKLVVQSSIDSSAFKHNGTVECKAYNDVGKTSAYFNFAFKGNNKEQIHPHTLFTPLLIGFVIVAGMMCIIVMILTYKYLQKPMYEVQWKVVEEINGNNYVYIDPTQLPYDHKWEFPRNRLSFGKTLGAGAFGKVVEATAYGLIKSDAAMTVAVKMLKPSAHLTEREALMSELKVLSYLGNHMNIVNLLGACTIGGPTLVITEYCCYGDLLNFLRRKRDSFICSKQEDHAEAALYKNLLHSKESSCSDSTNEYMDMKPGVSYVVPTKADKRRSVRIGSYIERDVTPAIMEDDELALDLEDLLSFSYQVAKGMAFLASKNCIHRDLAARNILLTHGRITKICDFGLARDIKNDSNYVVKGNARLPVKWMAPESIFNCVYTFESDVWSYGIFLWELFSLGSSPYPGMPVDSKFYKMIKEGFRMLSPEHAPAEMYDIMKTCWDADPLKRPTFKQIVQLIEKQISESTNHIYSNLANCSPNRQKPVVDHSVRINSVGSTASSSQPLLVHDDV

[3] = target: T2, panel of more than 300 wild-type and mutant kinases (313 kinase panel) (Homo sapiens, UniProt O15264); conditions: kinase p38δ; 1 μM
T2 sequence (O15264 1-365): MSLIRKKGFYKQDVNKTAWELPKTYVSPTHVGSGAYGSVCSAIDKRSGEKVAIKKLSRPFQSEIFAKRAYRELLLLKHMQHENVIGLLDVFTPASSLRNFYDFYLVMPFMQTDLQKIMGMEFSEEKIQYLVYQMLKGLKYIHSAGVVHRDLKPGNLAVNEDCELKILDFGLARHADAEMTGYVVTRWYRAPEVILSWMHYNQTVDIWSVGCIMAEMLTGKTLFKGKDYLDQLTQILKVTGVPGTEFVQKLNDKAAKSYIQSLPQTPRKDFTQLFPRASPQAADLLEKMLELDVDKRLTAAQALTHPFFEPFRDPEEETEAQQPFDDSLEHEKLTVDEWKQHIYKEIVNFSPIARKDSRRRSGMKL

[4] = target: panel of more than 300 wild-type and mutant kinases (313 kinase panel) (Homo sapiens, UniProt P06241); conditions: kinase FYN; compound at 1 μM
panel of more than 300 wild-type and mutant kinases (313 kinase panel) (Homo sapiens, UniProt P06241), sequence (P06241 whole entry, change not shown): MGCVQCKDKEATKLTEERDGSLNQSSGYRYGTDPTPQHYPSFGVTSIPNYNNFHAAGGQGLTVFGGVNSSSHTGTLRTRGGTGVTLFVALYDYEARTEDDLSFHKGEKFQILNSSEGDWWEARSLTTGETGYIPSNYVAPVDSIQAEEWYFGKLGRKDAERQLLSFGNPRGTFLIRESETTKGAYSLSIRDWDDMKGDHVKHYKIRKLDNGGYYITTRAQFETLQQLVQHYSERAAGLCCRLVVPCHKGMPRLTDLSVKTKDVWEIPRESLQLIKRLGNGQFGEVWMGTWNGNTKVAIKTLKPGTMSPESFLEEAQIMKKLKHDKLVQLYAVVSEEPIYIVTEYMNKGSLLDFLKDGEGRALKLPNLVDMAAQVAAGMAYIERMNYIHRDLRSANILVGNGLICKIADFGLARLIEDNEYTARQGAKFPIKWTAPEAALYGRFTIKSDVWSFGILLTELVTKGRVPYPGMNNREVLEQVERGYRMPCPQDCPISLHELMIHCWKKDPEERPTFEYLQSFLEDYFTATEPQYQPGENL

[5] = target: panel of more than 300 wild-type and mutant kinases (313 kinase panel) (Homo sapiens, UniProt Q9Y6M4)
panel of more than 300 wild-type and mutant kinases (313 kinase panel) (Homo sapiens, UniProt Q9Y6M4), sequence (Q9Y6M4 whole entry, change not shown): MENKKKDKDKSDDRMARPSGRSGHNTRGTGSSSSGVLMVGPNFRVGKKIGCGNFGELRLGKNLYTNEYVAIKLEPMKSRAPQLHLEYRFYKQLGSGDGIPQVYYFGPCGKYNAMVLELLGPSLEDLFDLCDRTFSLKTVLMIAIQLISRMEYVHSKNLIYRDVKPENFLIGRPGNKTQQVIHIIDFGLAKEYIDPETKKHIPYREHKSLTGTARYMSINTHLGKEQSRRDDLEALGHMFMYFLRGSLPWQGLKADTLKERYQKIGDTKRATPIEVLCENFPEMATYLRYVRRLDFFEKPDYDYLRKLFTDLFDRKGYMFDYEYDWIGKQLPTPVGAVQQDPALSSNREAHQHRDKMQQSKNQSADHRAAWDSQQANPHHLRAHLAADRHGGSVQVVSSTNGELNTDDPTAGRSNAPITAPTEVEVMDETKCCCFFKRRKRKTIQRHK

[6] = target: T3, panel of more than 300 wild-type and mutant kinases (313 kinase panel) (Homo sapiens, UniProt Q15831)
T3 sequence (Q15831 1-433): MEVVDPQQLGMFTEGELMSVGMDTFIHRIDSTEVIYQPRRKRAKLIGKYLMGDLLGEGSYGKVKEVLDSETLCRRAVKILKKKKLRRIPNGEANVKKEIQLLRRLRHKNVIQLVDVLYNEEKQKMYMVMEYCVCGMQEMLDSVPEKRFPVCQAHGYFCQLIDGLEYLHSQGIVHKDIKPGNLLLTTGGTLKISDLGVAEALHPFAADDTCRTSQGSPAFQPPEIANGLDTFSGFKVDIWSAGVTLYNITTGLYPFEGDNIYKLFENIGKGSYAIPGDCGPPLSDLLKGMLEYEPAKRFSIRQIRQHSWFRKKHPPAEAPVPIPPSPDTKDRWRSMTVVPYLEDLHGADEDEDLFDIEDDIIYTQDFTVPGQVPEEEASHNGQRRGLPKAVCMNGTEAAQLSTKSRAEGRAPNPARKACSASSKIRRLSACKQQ

| SMILES | %-inhibition of LATS2 [1] [%] | %-inhibition of KIT ([2]; 1 µM) [%] | %-inhibition of p38δ [3] [%] | %-inhibition of FYN [4] [%] | %-inhibition, CK1γ3 ([5]; 1 µM) [%] | %-inhibition of LKB1 ([6]; 1 µM) [%] | %-inhibition of KIT ([2]; kinase KIT, compound at 1 μM) [%] | %-inhibition, CK1γ3 ([5]; kinase CK1γ3, 1 μM compound) [%] | %-inhibition of LKB1 ([6]; kinase LKB1, compound at 1 μM) [%] |
| --- | --- | --- | --- | --- | --- | --- | --- | --- | --- |
| Cc1cn(-c2cc(NC(=O)c3ccc(C)c(Nc4nccc(-c5cccnc5)n4)c3)cc(C(F)(F)F)c2)cn1 [nilotinib] | -72 | 96 | -10 | 59 | -10 | -6 | – | – | – |
| Cc1ccc(Nc2nccc(N(C)c3ccc4c(C)n(C)nc4c3)n2)cc1S(N)(=O)=O [pazopanib] | -0.465 | – | -0.586 | – | – | – | 95 | -2 | 28 |
| Cc1ccc(C(=O)Nc2ccc(CN3CCN(C)CC3)c(C(F)(F)F)c2)cc1C#Cc1cnc2cccnn12 [ponatinib] | 16 | – | – | 101 | – | – | – | 4.6 | -12 |
| CNC(=O)c1cc(Oc2ccc(NC(=O)Nc3ccc(Cl)c(C(F)(F)F)c3)c(F)c2)ccn1 [regorafenib] | -9.47 | – | 2.22 | 55 | – | – | 100 | -2.14 | -5 |
| N#CC[C@H](C1CCCC1)n1cc(-c2ncnc3[nH]ccc23)cn1 [ruxolitinib] | 37 | – | 0.0923 | 11 | – | 0.546 | 3 | 4.6 | – |
| CCN(CC)CCNC(=O)c1c(C)[nH]c(/C=C2\C(=O)Nc3ccc(F)cc32)c1C [sunitinib] | – | – | – | 88 | – | – | – | – | 11 |
| CO[C@H]1C[C@@H]2CC[C@@H](C)[C@@](O)(O2)C(=O)C(=O)N2CCCC[C@H]2C(=O)O[C@H]([C@H](C)C[C@@H]2CC[C@@H](OC(=O)C(C)(CO)CO)[C@H](OC)C2)CC(=O)[C@H](C)/C=C(\C)[C@@H](O)[C@@H](OC)C(=O)[C@H](C)C[C@H](C)/C=C/C=C/C=C/1C [temsirolimus] | -4.56 | – | -5.63 | -1.39 | – | – | -8 | -1 | -6.57 |
| CC(=O)Nc1cccc(-n2c(=O)n(C3CC3)c(=O)c3c(Nc4ccc(I)cc4F)n(C)c(=O)c(C)c32)c1 [trametinib] | 1.87 | – | -2.7 | 9 | – | – | -0.648 | – | 2.38 |
| COc1cc2c(Nc3ccc(Br)cc3F)ncnc2cc1OCC1CCN(C)CC1 [vandetanib] | -8 | – | 0.0923 | 88 | – | – | – | 2.66 | -4.54 |
| CCCS(=O)(=O)Nc1ccc(F)c(C(=O)c2c[nH]c3ncc(-c4ccc(Cl)cc4)cc23)c1F [vemurafenib] | -2.28 | – | 8 | 81 | – | – | 58 | 2.14 | 1.13 |
